According to patent publication US20260176290A1, “INHIBITORS OF KRAS(G12D)” (Ranok Therapeutics (Hangzhou) Co. Ltd., priority 2022, published 2026):

Experiments:
[1] = target: T1, KRAS (G12D)/SOS1 (Homo sapiens, UniProt P01116, G12D); assay: KRAS (G12D)/SOS1 homogeneous time-resolved fluorescence (HTRF) assay; type: binding; conditions: absence of GTP, 4° C. for 3 hr
T1 construct: purchased Cisbio 63ADK000CB17PEH
Description: 3-fold serial dilutions of each test compound were prepared ranging from 20 μM to 1.02 nM. The test compound was mixed and incubated with reaction components, incubated in a sealed plate at 4° C. for 3 hr and fluorescence was measured using a PerkinElmer Envision plate reader. […]

[2] = tested on: A-427 lung carcinoma cells [heterozygous G12D]; assay: Cancer cell line proliferation (CellTiter-Glo), A-427; type: cell-based; conditions: Homo sapiens, A427 cells, 72 hr, read-out: CTG(IC50), ABS-72 H(nM) A427
Description: (§1) The following cancer cell lines were employed: AGS gastric carcinoma [heterozygous G12D] (ATCC, CRL-1739); A-427 lung carcinoma [heterozygous G12D] (ATCC, HTB-53); ASPC1 pancreatic adenocarcinoma [homozygous G12D] (ATCC, CRL-1682) and SW1990 pancreatic adenocarcinoma [homozygous G12D] (ATCC CRL-2172). Cell lines were cultured essentially according to ATCC recommendations.
(§2) AGS, A-427, ASPC1, SW1990, and GP2D cells were plated in 96-well tissue culture plates at 4,000 cells/well and incubated at 37° C./5% CO2 for 72 hr in 100 μl of media. 3-fold serial dilutions of each test compound were prepared ranging from 20 μM to 1.02 nM. Each cell line was then treated with test compounds at various concentrations with a final concentration of 0.5% DMSO/well, and then incubated at 37° C./5% CO2 for 72 hr. 100 μl of CellTiter-Glo® Reagent (Promega Corporation, Madison, WI) was added to each well and processed according manufacturer's protocol. Results were analyzed and IC50 5 values were calculated in GraphPad 7 software.

[3] = tested on: ASPC1 pancreatic adenocarcinoma cells [homozygous G12D]; assay: Cancer cell line proliferation (CellTiter-Glo), ASPC1; type: cell-based; conditions: Homo sapiens, ASPC-1 cells, 72 hr, read-out: CTG(IC50), ABS-72 H(nM) ASPC-1
Description: as §1, §2

[4] = tested on: AGS gastric carcinoma cells [heterozygous G12D]; assay: Cancer cell line proliferation (CellTiter-Glo), AGS; type: cell-based; conditions: Homo sapiens, 72 hr, read-out: CTG(IC50), ABS-72 H(nM) AGS
Description: as §1, §2

[5] = tested on: SW1990 pancreatic adenocarcinoma cells [homozygous G12D]; assay: Cancer cell line proliferation (CellTiter-Glo), SW1990; type: cell-based; conditions: Homo sapiens, 72 hr, read-out: CTG(IC50), ABS-72 H(nM) SW1990
Description: as §1, §2

T1 sequence (P01116 1-188 isoform P01116-2 G12D): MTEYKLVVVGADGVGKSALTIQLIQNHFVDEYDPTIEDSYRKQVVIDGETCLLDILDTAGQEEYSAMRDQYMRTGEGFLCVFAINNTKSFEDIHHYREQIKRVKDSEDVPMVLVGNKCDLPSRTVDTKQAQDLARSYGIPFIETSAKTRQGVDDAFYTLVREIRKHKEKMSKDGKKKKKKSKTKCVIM

| SMILES | IC50 [1] [nM] | IC50 [2] [nM] | IC50 [3] [nM] | IC50 [4] [nM] | IC50 [5] [nM] |
| --- | --- | --- | --- | --- | --- |
| C#Cc1c(F)ccc2cc(O)cc(-c3ncc4c(N5CC6CCC(C5)N6)nc(OCC(=C)CN5CCC(F)CC5)nc4c3F)c12 [Example 27] | < 100 | 100 to 1000 | 100 to 1000 | < 100 | < 100 |
| C#Cc1c(F)ccc2cc(O)cc(-c3nc(OC4CC4)c4c(N5CC6CCC(C5)N6)nc(OCC5(CN6CCC(C(F)(F)F)CC6)CC5)nc4c3F)c12 [Example 31] | < 100 | 100 to 1000 | < 100 | < 100 | < 100 |
| C#Cc1c(F)ccc2cc(O)cc(-c3nc(OC)c4c(N5CC6CCC(C5)N6)nc(OCC5(CN6CC7C(C6)C7C(F)(F)F)CC5)nc4c3F)c12 (centres unmarked) [Example 41] | < 100 | 100 to 1000 | < 100 | < 100 | < 100 |
| C#Cc1c(F)ccc2cc(O)cc(-c3nc(OC)c4c(N5CC6CCC(C5)N6)nc(OCC5(CN6CC7(CC(F)C7)C6)CC5)nc4c3F)c12 [Example 50] | < 100 | – | < 100 | < 100 | < 100 |
| C#Cc1c(F)ccc2cc(O)cc(-c3nc(OC(F)F)c4c(N5CC6CCC(C5)N6)nc(OCC5(CN6CCC(F)CC6)CC5)nc4c3F)c12 [Example 35] | < 100 | – | < 100 | < 100 | < 100 |
| C#Cc1c(F)ccc2cc(O)cc(-c3ncc4c(N5CC6CCC(C5)N6C(=O)OC(C)OC(C)=O)nc(OCC5(CN6CCC(F)CC6)CC5)nc4c3F)c12 (centres unmarked) [Example 52] | < 100 | 100 to 1000 | < 100 | < 100 | < 100 |
| C#Cc1c(F)ccc2cc(O)cc(-c3nc(N)c4c(N5CC6CCC(C5)N6)nc(OCC5(CN6CCC(F)CC6)CC5)nc4c3F)c12 [Example 46] | < 100 | – | 100 to 1000 | < 100 | < 100 |
| C#Cc1c(F)ccc2cc(O)cc(-c3ncc4c(N5CC6CCC(C5)N6)nc(OCC5(CN6CC=C(C(F)(F)F)CC6)CC5)nc4c3F)c12 [Example 26] | < 100 | 100 to 1000 | < 100 | < 100 | < 100 |
| C#Cc1c(F)ccc2cc(O)cc(-c3nc(N(C)C)c4c(N5CC6CCC(C5)N6)nc(OCC5(CN6CCC(F)CC6)CC5)nc4c3F)c12 [Example 23] | 100 to 1000 | > 1000 | > 1000 | > 1000 | > 1000 |
| C#Cc1cccc2cc(O)cc(-c3ncc4c(N5CC6CCC(C5)N6)nc(OCC5(CN6CC(F)C6)CC5)nc4c3F)c12 [Example 6] | < 100 | < 100 | 100 to 1000 | < 100 | – |
| C#Cc1cccc2cc(O)cc(-c3ncc4c(N5CC6CCC(C5)N6)nc(OCC5(CN6CC[C@H](F)C6)CC5)nc4c3F)c12 [Example 8] | < 100 | < 100 | < 100 | < 100 | < 100 |
| C#Cc1c(F)ccc2cc(O)cc(-c3nc(Cl)c4c(N5CC6CCC(C5)N6)nc(OCC5(CN6CCC(F)CC6)CC5)nc4c3F)c12 [Example 28] | < 100 | 100 to 1000 | < 100 | < 100 | < 100 |
| C#Cc1c(F)ccc2cc(O)cc(-c3nc(OC)c4c(N5CC6CCC(C5)N6)nc(OCC5(CN6CCC(C(F)(F)F)CC6)CC5)nc4c3F)c12 [Example 3] | < 100 | < 100 | < 100 | < 100 | < 100 |
| C#Cc1c(F)ccc2cc(O)cc(-c3ncc4c(N5CC6CCC(C5)N6)nc(OCC5(CN6CCC7(CC6)OCCO7)CC5)nc4c3F)c12 [Example 24] | < 100 | 100 to 1000 | > 1000 | < 100 | < 100 |
| C#Cc1cccc2cc(O)cc(-c3ncc4c(N5CC6CCC(C5)N6)nc(OCC5(CN6CCC(F)(F)CC6)CC5)nc4c3F)c12 [Example 5] | < 100 | < 100 | < 100 | < 100 | – |
| C#Cc1c(F)ccc2cc(O)cc(-c3ncc4c(N5CC6CCC(C5)N6)nc(OCC5(CN6CC7CC7(C#N)C6)CC5)nc4c3F)c12 (centres unmarked) [Example 21] | < 100 | 100 to 1000 | 100 to 1000 | < 100 | < 100 |
| C#Cc1c(F)ccc2cc(O)cc(-c3ncc4c(N5CC6CCC(C5)N6)nc(OCC5(CN6CCC[C@H](C#N)C6)CC5)nc4c3F)c12 [Example 10] | < 100 | < 100 | < 100 | < 100 | – |

| SMILES | IC50 [1] [nM] | IC50 [2] [nM] | IC50 [3] [nM] | IC50 [4] [nM] | IC50 [5] [nM] |
| --- | --- | --- | --- | --- | --- |
| C#Cc1c(F)ccc2cc(O)cc(-c3nc(OC(F)(F)F)c4c(N5CC6CCC(C5)N6)nc(OCC5(CN6CCC(F)CC6)CC5)nc4c3F)c12 [Example 47] | < 100 | – | < 100 | < 100 | < 100 |
| C#Cc1c(F)ccc2cc(O)cc(-c3ncc4c(N5CC6CCC(C5)N6)nc(OCC5(CN6CCC(S(=O)(=O)N(C)C)CC6)CC5)nc4c3F)c12 [Example 25] | < 100 | > 1000 | 100 to 1000 | < 100 | 100 to 1000 |
| C#Cc1c(F)ccc2cc(O)cc(-c3ncc4c(N5CC6CCC(C5)N6)nc(OCC5(CN6CCC[C@@H](F)C6)CC5)nc4c3F)c12 [Example 16] | < 100 | < 100 | < 100 | < 100 | – |
| C#Cc1c(F)ccc2cc(O)cc(-c3nc(OC)c4c(N5CC6CCC(C5)N6)nc(OCC5(CN6CC(F)C(F)C6)CC5)nc4c3F)c12 (centres unmarked) [Example 42] | < 100 | 100 to 1000 | < 100 | < 100 | < 100 |
| C#Cc1c(F)ccc2cc(O)cc(-c3nc(OC(F)F)c4c(N5CC6CCC(C5)N6)nc(OCC5(CN6CCC(C(F)(F)F)CC6)CC5)nc4c3F)c12 [Example 32] | < 100 | 100 to 1000 | 100 to 1000 | < 100 | < 100 |
| C#Cc1c(F)ccc2cc(O)cc(-c3ncc4c(N5CC6CCC(C5)N6)nc(OCC5(CN6CCC(C(C)C)CC6)CC5)nc4c3F)c12 [Example 18] | < 100 | 100 to 1000 | – | < 100 | – |
| C#Cc1c(F)ccc2cc(O)cc(-c3ncc4c(N5CC6CCC(C5)N6)nc(OCC5(CN6CC[C@H](F)C6)CC5)nc4c3F)c12 [Example 15] | < 100 | < 100 | < 100 | < 100 | – |
| C#Cc1c(F)ccc2cc(O)cc(-c3nc(OC(C)C)c4c(N5CC6CCC(C5)N6)nc(OCC5(CN6CCC(C(F)(F)F)CC6)CC5)nc4c3F)c12 [Example 29] | < 100 | 100 to 1000 | < 100 | < 100 | < 100 |
| C#Cc1c(F)ccc2cc(O)cc(-c3ncc4c(N5CC6CCC(C5)N6)nc(OCC5(CN6CCC(OC(F)(F)F)CC6)CC5)nc4c3F)c12 [Example 20] | < 100 | 100 to 1000 | < 100 | < 100 | < 100 |
| C#Cc1c(F)ccc2cc(O)cc(-c3ncc4c(N5CC6CCC(C5)N6)nc(OCC56CCCN5C[C@H](F)C6)nc4c3F)c12 (some centres unmarked) [Ref. 1, reference compound] | – | < 100 | 100 to 1000 | < 100 | < 100 |
| C#Cc1c(F)ccc2cc(O)cc(-c3nc(OC)c4c(N5CC6CCC(C5)N6)nc(OCC(=C)CN5CC6CC6C5)nc4c3F)c12 (centres unmarked) [Example 48] | < 100 | – | < 100 | < 100 | < 100 |
| C#Cc1cccc2cc(O)cc(-c3ncc4c(N5CC6CCC(C5)N6)nc(OCC5(CN6CCC(OC)CC6)CC5)nc4c3F)c12 [Example 17] | < 100 | 100 to 1000 | – | < 100 | – |
| C#Cc1c(F)ccc2cc(O)cc(-c3ncc4c(N5CC6CCC(C5)N6)nc(OCC5(CN6CCC(OC)CC6)CC5)nc4c3F)c12 [Example 12] | < 100 | 100 to 1000 | 100 to 1000 | < 100 | – |
| C#Cc1c(F)ccc2cc(O)cc(-c3ncc4c(N5CC6CCC(C5)N6)nc(OCC5(CN6CCC([S+](C)[O-])CC6)CC5)nc4c3F)c12 (centres unmarked) [Example 22] | 100 to 1000 | > 1000 | > 1000 | > 1000 | – |
| C#Cc1c(F)ccc2cc(O)cc(-c3ncc4c(N5CC6CCC(C5)N6)nc(OCC5(CN6CCCC(F)(F)C6)CC5)nc4c3F)c12 [Example 9] | < 100 | 100 to 1000 | 100 to 1000 | < 100 | – |
| C#Cc1c(F)ccc2cc(O)cc(-c3ncc4c(N5CC6CCC(C5)N6)nc(OCC5(CN6CCC(C#N)CC6)CC5)nc4c3F)c12 [Example 11] | < 100 | < 100 | < 100 | < 100 | – |
